The values that follow come from patent US9745317B2, “Heterocyclic compounds and their use as dopamine D1 ligands” (PFIZER INC., priority 2014, dated 2017).

Where a name gives a salt, the structure may show the parent alone.

Sequence of Human D1 Receptor (P21728 whole entry): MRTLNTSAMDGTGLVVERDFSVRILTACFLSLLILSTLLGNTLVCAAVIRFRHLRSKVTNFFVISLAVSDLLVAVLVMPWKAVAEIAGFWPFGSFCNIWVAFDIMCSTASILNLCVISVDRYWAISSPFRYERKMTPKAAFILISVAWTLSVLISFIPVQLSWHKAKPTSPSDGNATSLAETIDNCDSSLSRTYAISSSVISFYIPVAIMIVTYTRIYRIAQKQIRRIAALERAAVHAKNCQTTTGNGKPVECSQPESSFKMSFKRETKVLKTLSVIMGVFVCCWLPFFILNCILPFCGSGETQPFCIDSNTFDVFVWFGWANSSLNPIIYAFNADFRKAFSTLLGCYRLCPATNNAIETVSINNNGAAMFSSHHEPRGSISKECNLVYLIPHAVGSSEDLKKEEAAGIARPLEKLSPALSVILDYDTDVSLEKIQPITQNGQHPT

The first assay has as its target Human D1 Receptor (Homo sapiens (Human), UniProt P21728). The assay can be described thus: Human D1 receptor binding assay ([^3H]-SCH23390 competition binding). To be noted: over-expressing LTK human cell lines; 0.5 nM [^3H]-SCH23390; 30 min at 37° C.; footnote a = single determination, b = geometric mean of ≧5 determinations; read-out: Human D1 Receptor Binding, Ki (nM); Geometric mean of 2-4 determinations (unless otherwise indicated). On the procedure:
The affinity of the compounds described herein was determined by competition binding assays similar to those described in Ryman-Rasmussen et al., “Differential activation of adenylate cyclase and receptor internalization by novel dopamine D1 receptor agonists”, Molecular Pharmacology 68(4):1039-1048 (2005).
D1 binding assays were performed using over-expressing LTK human cell lines. […] These ligand and tissue concentrations were used in time course studies to determine linearity and equilibrium conditions for binding. Binding was at equilibrium with the specified amount of tissue in 30 minutes at 37° C. […] The pellet was resuspended in assay buffer [50 mM Tris (pH 7.4@ RT) containing 4 mM MgSO4 and 0.5 mM EDTA]. […] Non-specific binding was determined by radioligand binding in the presence of a saturating concentration of (+)-Butaclamol (10 μM), a D1 antagonist. After a 30 minute incubation period at 37° C., assay samples were rapidly filtered through Unifilter-96 GF/B PEI-coated filter plates and rinsed with 50 mM Tris buffer (pH 7.4 at 4° C.). […] The IC50 value (concentration at which 50% inhibition of specific binding occurs) was calculated by linear regression of the concentration-response data in Microsoft Excel. Ki values were calculated according to the Cheng-Prusoff equation: […]
A word on the Ki: it is a dissociation constant, usually derived from enzyme kinetics or from competition with a known ligand. `Cc1cc(Oc2nccc3c2CCO3)ccc1-c1c(C)ncnc1C` [Example 1, 4-[4-(4,6-Dimethylpyrimidin-5-yl)-3-methylphenoxy]-2,3-dihydrofuro[3,2-c]pyridine]: the Ki came to 76.8 nM.

With `Cc1c(-c2ccc(Oc3nccc4c3CCO4)cc2)n(C)c(=O)[nH]c1=O` [Example 13, 6-[4-(2,3-Dihydrofuro[3,2-c]pyridin-4-yloxy)phenyl]-1,5-dimethylpyrimidine-2,4(1H,3H)-dione, trifluoroacetate salt], the Ki is 46.1 nM. Regarding `Cc1cc(Oc2nccc3c2C(O)CO3)ccc1-c1c(C)n[nH]c(=O)c1C` (stereo not drawn) [Example 16, 5-{4-[(3-Hydroxy-2,3-dihydrofuro[3,2-c]pyridin-4-yl)oxy]-2-methylphenyl}-4,6-dimethylpyridazin-3(2H)-one], the inhibition constant Ki is 4.8 nM.

For `Cc1cc(Oc2nccc3c2CCO3)ccc1-c1c(C)ncc2nccn12` [Example 18, 5-[4-(2,3-dihydrofuro[3,2-c]pyridin-4-yloxy)-2-methylphenyl]-6-methylimidazo[1,2-a]pyrazine], the Ki stood at 52.1 nM. Same read-out and setting: under `Cc1cc(Oc2nccc3c2CCN3)ccc1-c1c(C)ncc(=O)n1C` (single isomer, unassigned) [Example 25, (−)-6-[4-(2,3-dihydro-1H-pyrrolo[3,2-c]pyridin-4-yloxy)-2-methylphenyl]-1,5-dimethylpyrazin-2(1H)-one] stands 75.8 nM; under `Cc1cc(Oc2nccc3c2CCO3)ccc1-c1c(C)n[nH]c(=O)c1C` [Example 7, (−)-5-[4-(2,3-Dihydrofuro[3,2-c]pyridin-4-yloxy)-2-methylphenyl]-4,6-dimethylpyridazin-3(2H)-one], 12.7 nM. Still for that read-out and setting: the result for `Cc1cc(Oc2nccc3c2CCN3)ccc1-c1c(C)n[nH]c(=O)c1C` (single isomer, unassigned; ent-2) [Example 10, 5-[4-(2,3-Dihydro-1H-pyrrolo[3,2-c]pyridin-4-yloxy)-2-methylphenyl]-4,6-dimethylpyridazin-3(2H)-one, ENT-2] reads 50.5 nM. For `Cc1c(-c2ccc(Oc3ncnc4c3CCN4)cc2)n(C)c(=O)[nH]c1=O` [Example 27, 6-[4-(6,7-dihydro-5H-pyrrolo[2,3-d]pyrimidin-4-yloxy)phenyl]-1,5-dimethylpyrimidine-2,4(1H,3H)-dione], the inhibitory constant (Ki) is 44.4 nM. On the same count and under the same terms, under `Cc1cc(Oc2ncnc3c2CCC3)ccc1-c1c(C)ncnc1C` [Example 20, 4-[4-(4,6-dimethylpyrimidin-5-yl)-3-methylphenoxy]-6,7-dihydro-5H-cyclopenta[d]pyrimidine] stands 446 nM. On the same count and under the same terms, the result for `Cc1cc(Oc2nccc3c2CCO3)ccc1-c1c(C)ncc(=O)n1C` (single isomer, unassigned) [Example 22, (−)-6-[4-(2,3-dihydrofuro[3,2-c]pyridin-4-yloxy)-2-methylphenyl]-1,5-dimethylpyrazin-2(1H)-one] reads 202 nM. The same measure, in the same setting: the result for `Cc1cc(Oc2nccc3c2CCO3)ccc1-c1c(C)n[nH]c(=O)c1C` [Example 5, 5-[4-(2,3-Dihydrofuro[3,2-c]pyridin-4-yloxy)-2-methylphenyl]-4,6-dimethylpyridazin-3(2H)-one] reads 14 nM; that for `Cc1cc(Oc2ncnc3c2CCN3)ccc1-c1c(C)ncnc1C` [Example 19, 4-[4-(4,6-dimethylpyrimidin-5-yl)-3-methylphenoxy]-6,7-dihydro-5H-pyrrolo[2,3-d]pyrimidine], 156 nM; that for `Cc1cc(Oc2nccc3c2CCO3)ccc1-c1c(C)n[nH]c(=O)c1C` [Example 6, (+)-5-[4-(2,3-Dihydrofuro[3,2-c]pyridin-4-yloxy)-2-methylphenyl]-4,6-dimethylpyridazin-3(2H)-one], 12.6 nM. In the case of `Cc1n[nH]c(=O)c(C)c1-c1ccc(Oc2nccc3c2CCO3)cc1C#N` [Example 26, 5-(2,3-dihydrofuro[3,2-c]pyridin-4-yloxy)-2-(3,5-dimethyl-6-oxo-1,6-dihydropyridazin-4-yl)benzonitrile], the Ki is 162 nM. On the same count and under the same terms, under `Cc1c(-c2ccc(Oc3ncnc4c3CCC4)cc2)n(C)c(=O)[nH]c1=O` [Example 28, 6-[4-(6,7-dihydro-5H-cyclopenta[d]pyrimidin-4-yloxy)phenyl]-1,5-dimethylpyrimidine-2,4(1H,3H)-dione] stands 202 nM; under `Cc1cc(Oc2nccc3c2CCO3)ccc1-c1c(C)ncc(=O)n1C` [Example 21, 6-[4-(2,3-dihydrofuro[3,2-c]pyridin-4-yloxy)-2-methylphenyl]-1,5-dimethylpyrazin-2(1H)-one], 82.5 nM; under `Cc1cc(Oc2nccc3c2CCN3)ccc1-c1c(C)ncc(=O)n1C` (single isomer, unassigned) [Example 24, (+)-6-[4-(2,3-dihydro-1H-pyrrolo[3,2-c]pyridin-4-yloxy)-2-methylphenyl]-1,5-dimethylpyrazin-2(1H)-one], 201 nM. The same measure, in the same setting: the result for `Cc1cc(Oc2nccc3c2CCN3)ccc1-c1c(C)n[nH]c(=O)c1C` (single isomer, unassigned; ent-1) [Example 9, 5-[4-(2,3-Dihydro-1H-pyrrolo[3,2-c]pyridin-4-yloxy)-2-methylphenyl]-4,6-dimethylpyridazin-3(2H)-one, ENT-1] reads 35.6 nM; that for `Cc1cc(Oc2nccc3c2CCO3)ccc1-c1c(C)ncc(=O)n1C` (single isomer, unassigned) [Example 23, (+)-6-[4-(2,3-dihydrofuro[3,2-c]pyridin-4-yloxy)-2-methylphenyl]-1,5-dimethylpyrazin-2(1H)-one], 706 nM; that for `Cc1cc(Oc2nccc3c2CCN3)ccc1-c1c(C)n[nH]c(=O)c1C` [Example 8, 5-[4-(2,3-Dihydro-1H-pyrrolo[3,2-c]pyridin-4-yloxy)-2-methylphenyl]-4,6-dimethylpyridazin-3(2H)-one], 8.4 nM.

As to `Cc1c(-c2ccc(Oc3nccc4c3CCN4)cc2)n(C)c(=O)[nH]c1=O` [Example 12, 6-[4-(2,3-Dihydro-1H-pyrrolo[3,2-c]pyridin-4-yloxy)phenyl]-1,5-dimethylpyrimidine-2,4(1H,3H)-dione], the Ki was 11.1 nM.

The same assay, now with this note: read-out: Human D1 Receptor Binding, Ki (nM); Geometric mean of 2-4 determinations (unless otherwise indicated).
For the molecule `Cc1n[nH]c(=O)c(C)c1-c1ccc(Oc2ncnc3c2CCN3)cc1` [Example 11, 5-[4-(6,7-Dihydro-5H-pyrrolo[2,3-d]pyrimidin-4-yloxy)phenyl]-4,6-dimethylpyridazin-3(2H)-one], the inhibition constant (Ki) worked out at 60.4 nM. The same measure, in the same setting: the result for `Cc1cc(Oc2nccc3c2CCCO3)ccc1-c1c(C)n[nH]c(=O)c1C` [Example 14, 5-[4-(3,4-Dihydro-2H-pyrano[3,2-c]pyridin-5-yloxy)-2-methylphenyl]-4,6-dimethylpyridazin-3(2H)-one] reads 70.3 nM; that for `Cc1n[nH]c(=O)c(C)c1-c1ccc(Oc2nccc3c2CCN3)cc1` [Example 4, 5-[4-(2,3-Dihydro-1H-pyrrolo[3,2-c]pyridin-4-yloxy)phenyl]-4,6-dimethylpyridazin-3(2H)-one], 14 nM. For the molecule `Cc1cc(Oc2nccc3c2CCCN3)ccc1-c1c(C)n[nH]c(=O)c1C` [Example 15, 4,6-Dimethyl-5-[2-methyl-4-(1,2,3,4-tetrahydro-1,6-naphthyridin-5-yloxy)phenyl]pyridazin-3(2H)-one], the inhibitory constant (Ki) is 18.1 nM. On the same count and under the same terms, under `Cc1cc(Oc2nccc3c2C(O)CO3)ccc1-c1c(C)ncnc1C` (stereo not drawn) [Example 17, 4-[4-(4,6-Dimethylpyrimidin-5-yl)-3-methylphenoxy]-2,3-dihydrofuro[3,2-c]pyridin-3-ol] stands 28.9 nM; under `Cc1cc(Oc2nccc3c2CCN3)ccc1-c1c(C)ncnc1C` [Example 2, 4-[4-(4,6-Dimethylpyrimidin-5-yl)-3-methylphenoxy]-2,3-dihydro-1H-pyrrolo[3,2-c]pyridine], 78.1 nM.
